Experimental data reported in patent US8372813B2, “Antibacterial aminoglycoside analogs” (Achaogen, Inc., priority 2008, dated 2013).

Tests used:
[1] = tested on: P. aeruginosa ATCC 27853 (APAE001); experiment: MIC assay, CLSI broth microdilution; assay type: cell-based; conditions: Pseudomonas aeruginosa; ATCC27853; Mueller Hinton Broth, 35C, 20 hours
Protocol: (§1) Minimum inhibitory concentrations (MIC) were determined by reference Clinical and Laboratory Standards Institute (CLSI) broth microdilution methods per M7-A7 [2006]. Quality control ranges utilizing E. coli ATCC 25922, P. aeruginosa ATCC 27853 and S. aureus ATCC 29213, and interpretive criteria for comparator agents were as published in CLSI M100-S17 [2007]. Briefly, serial two-fold dilutions of the test compounds were prepared at 2× concentration in Mueller Hinton Broth. The compound dilutions were mixed in 96-well assay plates in a 1:1 ratio with bacterial inoculum. The inoculum was prepared by suspension of a colony from an agar plate that was prepared the previous day. Bacteria were suspended in sterile saline and added to each assay plate to obtain a final concentration of 5×10^5 CFU/mL. The plates were incubated at 35C for 20 hours in ambient air.

[2] = tested on: E. coli ATCC 25922 (AECO001); experiment: MIC assay, CLSI broth microdilution; assay type: cell-based; conditions: Escherichia coli; ATCC25922; Mueller Hinton Broth, 35C, 20 hours
Protocol: as §1

MIC [1]: ≤ 1 µg/mL
MIC [2]: ≤ 1 µg/mL
SMILES: NCC[C@H](O)C(=O)N[C@@H]1C[C@H](N)[C@@H](O[C@H]2O[C@H](CNCCO)CC[C@H]2N)[C@H](O[C@@H]2O[C@H](CO)[C@@H](O[C@H]3O[C@@H](CN)[C@@H](O)[C@H](O)[C@H]3N)[C@H]2O)[C@H]1O [1/20]
